The text below walks through data of ChEMBL document CHEMBL5154938, “A Small-Molecule Oral Agonist of the Human Glucagon-like Peptide-1 Receptor” (J Med Chem, 2022).

Series [1] has as its target T1, Glucagon-like peptide 1 receptor (Homo sapiens, UniProt P43220).
For series [2], the target named is T1, Glucagon-like peptide 1 receptor. The source holds these as a separate data set.
The target is the same in series [3]. The source holds these as a separate data set.
For series [4] the target is unchanged. The source holds these as a separate data set.
For series [5] the target is unchanged. The series can be described thus: biochemical.
The target is the same in series [6]. The series can be described thus: Agonist activity at human GLP-1R expressed in CHO-K1 cells assessed as cAMP accumulation by measuring maximum efficacy at 20 uM incubated for 30 mins in presence of BETP by BETP sensitized time-resolved fluorescence assay relative to control. It counts as functional, cell-based. As to conditions: filed as agonist. Background: Cyclic AMP is a second messenger, typically raised through Gs and lowered through Gi signalling.

Series [7] shares this target. Put plainly: Agonist activity at human GLP-1R expressed in PathHunter CHO-K1 GLP1R beta-arrestin-2 cell assessed as induction of beta-arrestin 2 recruitment incubated for 90 mins in presence of BETP by PathHunter assay. It is filed as functional, cell-based. In general terms: Arrestin recruitment assays detect the binding of arrestin to an activated receptor.
The target is the same in series [8]. The series can be described thus: Agonist activity at human GLP-1R expressed in PathHunter CHO-K1 GLP1R beta-arrestin-2 cells assessed as induction of beta-arrestin 2 recruitment by measuring maximum efficacy incubated for 90 mins in presence of BETP by PathHunter assay relative to control. It is filed as functional, cell-based.
Series [9] can be described thus: Lipophilicity, logD of compound at pH 7.4 by shake-flash method. It is filed as physicochemical. Conditions: buffer.
Series [10] concerns the target Voltage-gated inwardly rectifying potassium channel KCNH2 (Homo sapiens, UniProt Q12809). Put plainly: Inhibition of hERG ion channel by patch-clamp method. It is filed as toxicity. (In general: hERG is a cardiac potassium channel; its block is linked to QT prolongation.)
The target of series [11] is T1, Glucagon-like peptide 1 receptor. The source holds these as a separate data set.
For series [12] the target is unchanged. The source holds these as a separate data set.
Another series in a line: in vitro. Conditions: human, hepatocytes.
The nature of series [13]: Lipophilicity, logD of compound at pH 7.4 by RP-HPLC analysis. It counts as physicochemical. As to conditions: buffer.
Series [14] can be described thus: Cmax in Wistar Han rat at 100 mg/kg, po measured upto 24 hrs by LC-MS/MS analysis. It counts as ADME, organism-based. Conditions: in vivo. More on the design: time < 24 hrs, dose 100 mg/kg, route po.
A short description of series [15]: Metabolic stability in human liver microsomes assessed as intrinsic clearance in the presence of NADPH by HPLC-MS/MS analysis. It is filed as ADME, Microsome.
Series [16] can be described thus: Activation of rabbit GLP-1R expressed in CHO cells assessed as increase in cAMP accumulation. It is filed as cell-based. As to conditions: Oryctolagus cuniculus.
Series [17] can be described thus: Cmax in Wistar Han rat at 5 mg/kg, po measured upto 24 hrs by LC-MS/MS analysis. It is filed as ADME, organism-based. More on the design: dose 5 mg/kg, time < 24 hrs, route po. Conditions: in vivo.
A further series deals with CHO. Put plainly: Activation of mouse GLP-1R S33W mutant expressed in CHO cells assessed as increase in cAMP accumulation. It is filed as cell-based. Conditions: filed as activator.
A short description of series [18]: Cmax in cynomologus monkey at 5 mg/kg, po measured upto 24 hrs by LC-MS/MS analysis. It is filed as ADME, organism-based, Macaca fascicularis. More on the design: time < 24 hrs, dose 5 mg/kg, route po. Conditions: cynomolgus monkey, in vivo.
A short description of series [19]: Cmax in cynomologus monkey at 100 mg/kg, po measured upto 24 hrs by LC-MS/MS analysis. It is filed as ADME, organism-based, Macaca fascicularis. Details: time < 24 hrs, dose 100 mg/kg, route po. Conditions: cynomolgus monkey, in vivo.
Series [20] in a line: AUC(0 to infinity) in cynomologus monkey at 1 mg/kg, iv measured upto 24 hrs by LC-MS/MS analysis. It counts as ADME, organism-based, Macaca fascicularis. Details: dose 1 mg/kg, time < 24 hrs, route iv. As to conditions: cynomolgus monkey, in vivo.
A short description of series [21]: AUC(0 to infinity) in cynomologus monkey at 5 mg/kg, po measured upto 24 hrs by LC-MS/MS analysis. It is filed as ADME, organism-based, Macaca fascicularis. More on the design: time < 24 hrs, dose 5 mg/kg, route po. Conditions: cynomolgus monkey, in vivo.
A short description of series [22]: AUC(0 to infinity) in cynomologus monkey at 100 mg/kg, po measured upto 24 hrs by LC-MS/MS analysis. It counts as ADME, organism-based, Macaca fascicularis. Details: dose 100 mg/kg, time < 24 hrs, route po. Conditions: cynomolgus monkey, in vivo.
Series [23] can be described thus: AUC (0 to infinity) in Wistar Han rat at 1 mg/kg, iv measured upto 24 hrs by LC-MS/MS analysis. It counts as ADME, organism-based. Details: time < 24 hrs, dose 1 mg/kg, route iv. Conditions: in vivo.
Series [24] in a line: AUC (0 to infinity) in Wistar Han rat at 5 mg/kg, po measured upto 24 hrs by LC-MS/MS analysis. It counts as ADME, organism-based. More on the design: dose 5 mg/kg, time < 24 hrs, route po. Conditions: in vivo.
Series [25] can be described thus: AUC (0 to infinity) in Wistar Han rat at 100 mg/kg, po measured upto 24 hrs by LC-MS/MS analysis. It is filed as ADME, organism-based. More on the design: dose 100 mg/kg, time < 24 hrs, route po. As to conditions: in vivo.
The nature of series [26]: Volume of distribution at steady state in Wistar Han rat at 1 mg/kg, iv measured upto 24 hrs by LC-MS/MS analysis. It counts as ADME, organism-based. Conditions: in vivo.
The nature of series [27]: Volume of distribution at steady state in cynomologus monkey at 1 mg/kg, iv measured upto 24 hrs by LC-MS/MS analysis. It is filed as ADME, organism-based, Macaca fascicularis. As to conditions: cynomolgus monkey, in vivo.
A short description of series [28]: Oral bioavailability in cynomologus monkey at 5 mg/kg measured upto 24 hrs by LC-MS/MS analysis. It counts as ADME, organism-based, Macaca fascicularis. Conditions: cynomolgus monkey, in vivo.
Series [29] is described as follows: Oral bioavailability in cynomologus monkey at 100 mg/kg measured upto 24 hrs by LC-MS/MS analysis. It is filed as ADME, organism-based, Macaca fascicularis. As to conditions: cynomolgus monkey, in vivo.
A short description of series [30]: Oral bioavailability in Wistar Han rat at 5 mg/kg measured upto 24 hrs by LC-MS/MS analysis. It is filed as ADME, organism-based. As to conditions: in vivo.
Series [31] can be described thus: Oral bioavailability in Wistar Han rat at 100 mg/kg measured upto 24 hrs by LC-MS/MS analysis. It is filed as ADME, organism-based. As to conditions: in vivo.
The subject of series [32] is Macaca fascicularis. Put plainly: Induction of insulin secretion in cynomologus monkey assessed as induction of glucose-induced insulin secretion at 1.8 mg, iv dosed once daily by IVGTT. It is filed as functional, organism-based. As to conditions: DDE = dose-dependent effect.
The test system of series [33] is Macaca fascicularis. The series can be described thus: Induction of insulin secretion in cynomologus monkey assessed as glucose disappearance at 1.8 mg, iv dosed once daily by IVGTT assay. It counts as functional, organism-based.
For the next series, the system named is Cynomolgus monkey. Put plainly: Reduction in food intake in cynomologus monkey at 2.9 mg/kg, po administered once daily for 2 days relative to control. It is filed as functional, organism-based. As to conditions: Macaca fascicularis, time 2.0 day.
For series [34], the target named is T1, Glucagon-like peptide 1 receptor. Put plainly: Agonist activity at FAP-tagged human GLP-1R expressed in HEK293 cells assessed as receptor internalization measured after 30 mins by nuclear staining based confocal microscopic analysis. It counts as functional, cell-based. Conditions: filed as agonist.

Each structure is given as a SMILES string. The source made the active and inactive calls. The rule behind the calls is not given here.

Voltage-gated inwardly rectifying potassium channel KCNH2, sequence (Q12809 whole entry): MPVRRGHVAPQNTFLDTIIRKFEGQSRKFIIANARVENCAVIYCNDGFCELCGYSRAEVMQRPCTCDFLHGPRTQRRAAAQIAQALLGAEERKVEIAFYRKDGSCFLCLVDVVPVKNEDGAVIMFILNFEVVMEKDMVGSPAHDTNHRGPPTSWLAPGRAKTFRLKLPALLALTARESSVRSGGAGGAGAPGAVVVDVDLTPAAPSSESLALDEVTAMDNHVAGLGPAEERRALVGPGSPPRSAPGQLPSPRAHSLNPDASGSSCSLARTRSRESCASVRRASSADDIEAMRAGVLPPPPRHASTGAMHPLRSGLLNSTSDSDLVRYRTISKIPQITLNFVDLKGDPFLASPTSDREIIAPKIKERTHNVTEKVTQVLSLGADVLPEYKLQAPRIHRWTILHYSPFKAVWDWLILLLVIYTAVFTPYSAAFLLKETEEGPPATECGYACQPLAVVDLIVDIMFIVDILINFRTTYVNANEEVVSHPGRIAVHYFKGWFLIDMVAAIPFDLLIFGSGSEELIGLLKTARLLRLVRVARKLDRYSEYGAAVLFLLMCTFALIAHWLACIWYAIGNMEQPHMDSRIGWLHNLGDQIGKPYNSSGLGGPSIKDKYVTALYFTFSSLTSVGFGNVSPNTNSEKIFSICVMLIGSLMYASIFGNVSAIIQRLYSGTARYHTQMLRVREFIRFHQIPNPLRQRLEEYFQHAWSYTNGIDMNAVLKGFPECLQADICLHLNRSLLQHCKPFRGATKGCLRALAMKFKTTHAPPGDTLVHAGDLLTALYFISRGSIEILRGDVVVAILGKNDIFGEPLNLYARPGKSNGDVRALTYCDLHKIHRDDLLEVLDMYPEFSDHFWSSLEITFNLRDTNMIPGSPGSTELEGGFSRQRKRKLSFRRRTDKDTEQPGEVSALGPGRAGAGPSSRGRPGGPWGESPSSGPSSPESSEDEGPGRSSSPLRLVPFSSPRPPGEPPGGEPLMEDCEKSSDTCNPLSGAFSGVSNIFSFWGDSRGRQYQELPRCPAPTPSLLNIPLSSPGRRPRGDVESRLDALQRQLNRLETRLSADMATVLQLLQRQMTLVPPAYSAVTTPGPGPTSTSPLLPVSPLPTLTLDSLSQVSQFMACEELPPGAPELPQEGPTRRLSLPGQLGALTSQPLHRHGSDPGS
T1 sequence (P43220 whole entry): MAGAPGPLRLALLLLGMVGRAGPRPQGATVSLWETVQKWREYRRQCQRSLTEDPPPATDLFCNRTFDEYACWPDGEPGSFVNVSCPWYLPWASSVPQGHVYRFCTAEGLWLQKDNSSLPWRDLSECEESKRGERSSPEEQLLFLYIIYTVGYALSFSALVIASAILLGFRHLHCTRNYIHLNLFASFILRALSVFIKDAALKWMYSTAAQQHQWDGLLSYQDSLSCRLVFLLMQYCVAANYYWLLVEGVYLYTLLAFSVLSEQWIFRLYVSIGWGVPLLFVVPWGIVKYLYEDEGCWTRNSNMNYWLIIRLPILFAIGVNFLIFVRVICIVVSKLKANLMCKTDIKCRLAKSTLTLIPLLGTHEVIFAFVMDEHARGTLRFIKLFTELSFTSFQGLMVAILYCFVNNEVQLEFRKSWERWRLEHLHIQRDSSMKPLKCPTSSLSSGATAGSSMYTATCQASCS

As for `CCn1cncc1Cn1c(CN2CCC(c3cccc(OCc4ccc(F)cc4F)n3)CC2)nc2ccc(C(=O)O)cc21`, the EC50 in series [1] amounted to 0.75 nM; in series [2], 8.6 nM; in series [3], 250 nM; in series [4] it was 610 nM. The same molecule returned a Ki in series [5] of 51 nM.
As for `Cn1c(CN2CCC(c3cccc(OCc4ccc(Cl)cc4F)n3)CC2)nc2ccc(C(=O)O)nc21`, the Emax is 84% in [6] and 99% in series [8] (filed as agonist). Further, the EC50 in series [7] is 2800 nM; in series [11], 6.7 nM; in [1] it was 95 nM; in series [2] it was 2100 nM; in [12], > 30000 nM. Also, in series [9], the logD turned out to be 2. In addition, the IC50 in series [10] is > 100000 nM. The molecule further registered a hepatocyte CLint in the series “in vitro” of 31 µL/min/1e6 cells.
For `Cn1c(CN2CCC(c3cccc(OCc4ccc(Cl)cc4F)n3)CC2)nc2nccc(NCC(=O)O)c21`, the Emax in series [6] was found to be 90%; in [8], 23%. Besides, the EC50 was 1500 nM in series [7]; 44 nM in [11]; 4600 nM in [1]; > 20000 nM in series [2]; > 30000 nM in series [12]. The same molecule displayed a logD in series [9] of 2.3. The IC50 in [10] was > 10000 nM. The hepatocyte CLint in “in vitro” was found to be 37 µL/min/1e6 cells.
As to `Cn1c(CN2CCC(c3nc(OCc4ccc(Cl)cc4F)ncc3F)CC2)nc2ccccc21`, in series [13], the log distribution coefficient (logD) was 5.6. Further, the IC50 in [10] was 5400 nM. Besides, the EC50 in series [11] was > 9900 nM; in [1], > 20000 nM; in series [2] it was > 20000 nM. The molecule also displayed a hepatocyte CLint in “in vitro” of 48 µL/min/1e6 cells.
Turning to `Cn1c(CN2CCC(c3cccc(OCc4ccc(Cl)cc4F)n3)CC2)nc2ccncc21`, the figures for the maximal effect (Emax) in series [6] and in series [8] (filed as agonist) were 86% and 100%, respectively. For the same molecule, the EC50 was 9600 nM in [7]; 77 nM in series [11]; 2600 nM in [1]; > 20000 nM in [2]; > 30000 nM in series [12]. Also, in [13], the log distribution coefficient (logD) came to 5.7. In series [10], the concentration for half-maximal inhibition (IC50) was 5600 nM. The molecule also showed a hepatocyte CLint in “in vitro” of 55 µL/min/1e6 cells.
Regarding `N#Cc1ccc(COc2cccc(C3CCN(Cc4nc5ccc(C(=O)O)cc5n4C[C@@H]4CCO4)CC3)n2)c(F)c1` [DANUGLIPRON], the Cmax worked out at 2820 ng/mL in series [14], 141 ng/mL in [17], 68.7 ng/mL in series [18] and 1150 ng/mL in series [19]. Also, the Emax in series [6] came to 110%. The logD in [9] is given as 1.8. Moreover, in [15], the CLH is < 10 µL/min. The molecule further gave a half-inhibitory concentration (IC50) in [10] of 4300 nM. For the same molecule, the EC50 in [16] is > 20000 nM. Besides, the result (in the series on CHO; in the series with Macaca fascicularis [33]; in the series with Cynomolgus monkey; in series [34]) was Active. Besides, the AUC in series [20] is 1240 ng·h/mL; in [21] it was 303 ng·h/mL; in series [22], 11000 ng·h/mL; in series [23] it was 296 ng·h/mL; in [24] it was 168 ng·h/mL; in series [25] it was 11900 ng·h/mL. Further, the results for the Vdss in [26] and in series [27] were 0.86 L/kg and 0.266 L/kg, respectively. In addition, the bioavailability in series [28] was 5%; in series [29] it was 9%; in series [30], 11%; in [31] it was 39%. The Activity result with Macaca fascicularis [32] is “Dde”. The same molecule had a hepatocyte CLint in the series “in vitro” of 6.9 µL/min/1e6 cells.

For orientation: EC50 means the midpoint of the concentration-response curve. The Ki is the equilibrium dissociation constant of an inhibitor or competing ligand from its target. Broadly, the Emax is the size of the effect at its maximum, as opposed to the concentration needed. In general, logD refers to lipophilicity at a set pH, counting ionised and neutral species. Usually IC50 stands for the concentration at which inhibition is half-maximal. One may read the hepatocyte CLint as the capacity of the preparation to metabolise the compound, expressed as a volume cleared per time. Usually Cmax stands for the highest concentration seen after dosing. As a reminder, the AUC is the area under the concentration-time curve, a measure of exposure. For orientation: Vdss means the apparent volume that relates the amount in the body to the concentration in plasma or blood. Usually bioavailability stands for the share of a dose that reaches the circulation, judged against a reference dose that is usually intravenous.
